Reference: patent publication US9340513B2, “Propenoate derivatives of betulin” (GlaxoSmithKline LLC, priority 2011, dated 2016)
pIC50: −log10 of the molar value.

Assays:
HIV = conditions: cited from earlier work
HIV-1 (strain IIIB) = assay: MT4 Cell Antiviral Assay; type: cell-based; conditions: Human immunodeficiency virus 1, 120 h; HIV-1 strain IIIB in MT4 cells, 5 days, Cell Titer-Glo; 50% decrease in HIV-induced cytopathic effect
Method: Antiviral HIV activity and compound-induced cytotoxicity were measured in parallel based on a modified protocol of the propidium iodide based procedure in the human T-cell lymphotropic virus transformed cell line MT4. Aliquots of the test compounds were serially diluted in DMSO plated in 96-well plates. Exponentially growing MT4 cells were harvested and pelleted. Cell pellets were resuspended in fresh medium (RPMI 1640, 10% FCS, and gentamycin. Cell aliquots were infected by the addition of HIV-1 (strain IIIB) diluted to give a viral multiplicity of infection of 300×TCID50/million cells. A similar cell aliquot was diluted with medium to provide a mock-infected control. Cell infection was allowed to proceed for 1 hr at 37° C. in a tissue culture incubator with humidified 5% CO2 atmosphere. After the 1 hr incubation the virus/cell suspensions were diluted with fresh medium, and added to each well of the plate containing pre-diluted compound. Plates were then placed in a tissue culture incubator with humidified 5% CO2 for 5 days. […] The plates were analyzed in an automated plate reader for luminescence.assay. The control and standard used was efavirinz tested over a concentration range of 0.001 to 1 μM in every assay. The expected range of IC50 values for efavirinz is 0.1 to 1 nM.
The antiviral effect of a test compound is reported as an IC50, i.e. the inhibitory concentration that would produce a 50% decrease in the HIV-induced cytopathic effect. This effect is measured by the amount of test compound required to restore 50% of the cell growth of HIV-infected MT4 cells, compared to uninfected MT4 cell controls. IC50 was calculated by RoboSage, Automated Curve Fitting Program.
For each assay plate, the results (of wells containing uninfected cells or infected cells with no compound were averaged, respectively. For measurements of compound-induced cytotoxicty, results from wells containing various compound concentrations and uninfected cells were compared to the average of uninfected cells without compound treatment. Percent of cells remaining is determined by the following formula: Percent of cells remaining=(compound-treated uninfected cells/untreated uninfected cells)×100.
A level of percent of cells remaining of 79% or less indicates a significant level of direct compound-induced cytotoxicity for the compound at that concentration. When this condition occurs the results from the compound-treated infected wells at this concentration are not included in the calculation of IC50.
For measurements of compound antiviral activity, results from wells containing various compound concentrations and infected cells are compared to the average of uninfected and infected cells without compound treatment. Percent inhibition of virus is determined by the following formula: Percent inhibition of virus=(1−((ave. untreated uninfected cells−treated infected cells)/(ave. untreated uninfected cells−ave. untreated infected cells)))×100

| Compound | mean reduction of HIV viral load (HIV; patients with trough levels >=20 μg/mL and without key baseline Gag polymorphisms at Q369, V370 or T371) [log10/mL] | viral load reduction versus patients without Gag polymorphisms (HIV; users with Gag polymorphisms at Q369, V370 or T371) | pIC50 (HIV-1 (strain IIIB)) |
| --- | --- | --- | --- |
| C=C(C)[C@@H]1CC[C@]2(C(=O)O)CC[C@]3(C)[C@H](CC[C@@H]4[C@@]5(C)CC[C@H](OC(=O)CC(C)(C)C(=O)O)C(C)(C)[C@@H]5CC[C@]43C)[C@@H]12 [Bevirimat] | 1.3 | significantly lower load reductions | – |
| CC(C)C1=C2[C@H]3CC[C@@H]4[C@@]5(C)CC[C@H](OC(=O)CC(C)(C)C(=O)O)C(C)(C)[C@@H]5CC[C@@]4(C)[C@]3(C)CC[C@@]2(/C=C/C(=O)NC2(c3ncc(Cl)cn3)CC2)CC1=O [Example 26, 4-(((3aS,5aR,5bR,7aR,9S,11aR,11bR,13aS)-3a-((E)-3-((1-(5-Chloropyrimidin-2-yl)cyclopropyl)amino)-3-oxoprop-1-en-1-yl)-1-isopropyl-5a,5b,8,8,11a-pentamethyl-2-oxo-3,3a,4,5,5a,5b,6,7,7a,8,9,10,11,11a,11b,12,13,13a-octadecahydro-2H-cyclopenta[a]chrysen-9-yl)oxy)-2,2-dimethyl-4-oxobutanoic acid] | – | – | > 8.00 |
| C/C(=C\[C@@]12CC[C@]3(C)[C@H](CC[C@@H]4[C@@]5(C)CC[C@H](OC(=O)CC(C)(C)C(=O)O)C(C)(C)[C@@H]5CC[C@]43C)C1=C(C(C)C)C(=O)C2)C(=O)NC1(c2ccc(Cl)cc2)CC1 [Example 27, 4-(((3aS,5aR,5bR,7aR,9S,11aR,11bR,13aS)-3a-((E)-3-((1-(4-Chlorophenyl)cyclopropyl)amino)-2-methyl-3-oxoprop-1-en-1-yl)-1-isopropyl-5a,5b,8,8,11a-pentamethyl-2-oxo-3,3a,4,5,5a,5b,6,7,7a,8,9,10,11,11a,11b,12,13,13a-octadecahydro-2H-cyclopenta[a]chrysen-9-yl)oxy)-2,2-dimethyl-4-oxobutanoic acid] | – | – | > 8.00 |
| C/C(=C\[C@@]12CC[C@]3(C)[C@H](CC[C@@H]4[C@@]5(C)CC[C@H](OC(=O)CC(C)(C)C(=O)O)C(C)(C)[C@@H]5CC[C@]43C)C1=C(C(C)C)C(=O)C2)C(=O)NC1(c2ncc(Cl)cn2)CC1 [Example 28, 4-(((3aS,5aR,5bR,7aR,9S,11aR,11bR,13aS)-3a-((E)-3-((1-(5-Chloropyrimidin-2-yl)cyclopropyl)amino)-2-methyl-3-oxoprop-1-en-1-yl)-1-isopropyl-5a,5b,8,8,11a-pentamethyl-2-oxo-3,3a,4,5,5a,5b,6,7,7a,8,9,10,11,11a,11b,12,13,13a-octadecahydro-2H-cyclopenta[a]chrysen-9-yl)oxy)-2,2-dimethyl-4-oxobutanoic acid] | – | – | > 8.00 |
| C/C(=C\[C@@]12CC[C@]3(C)[C@H](CC[C@@H]4[C@@]5(C)CC[C@H](OC(=O)CC(C)(C)C(=O)O)C(C)(C)[C@@H]5CC[C@]43C)C1=C(C(C)C)C(=O)C2)C(=O)NC1(c2cccc(Cl)c2)CC1 [Example 29, 4-(((3aS,5aR,5bR,7aR,9S,11aR,11bR,13aS)-3a-((E)-3-((1-(3-Chlorophenyl)cyclopropyl)amino)-2-methyl-3-oxoprop-1-en-1-yl)-1-isopropyl-5a,5b,8,8,11a-pentamethyl-2-oxo-3,3a,4,5,5a,5b,6,7,7a,8,9,10,11,11a,11b,12,13,13a-octadecahydro-2H-cyclopenta[a]chrysen-9-yl)oxy)-2,2-dimethyl-4-oxobutanoic acid] | – | – | 6.60 to 8.00 |
| CC(C)C1=C2[C@H]3CC[C@@H]4[C@@]5(C)CC[C@H](OC(=O)CC(C)(C)C(=O)O)C(C)(C)[C@@H]5CC[C@@]4(C)[C@]3(C)CC[C@@]2(/C=C/C(=O)NC2CCCCC2)CC1=O [Example 30, 4-(((3aS,5aR,5bR,7aR,9S,11aR,11bR,13aS)-3a-((E)-3-(Cyclohexylamino)-3-oxoprop-1-en-1-yl)-1-isopropyl-5a,5b,8,8,11a-pentamethyl-2-oxo-3,3a,4,5,5a,5b,6,7,7a,8,9,10,11,11a,11b,12,13,13a-octadecahydro-2H-cyclopenta[a]chrysen-9-yl)oxy)-2,2-dimethyl-4-oxobutanoic acid] | – | – | 6.60 to 8.00 |
| CC(C)C1=C2[C@H]3CC[C@@H]4[C@@]5(C)CC[C@H](OC(=O)CC(C)(C)C(=O)O)C(C)(C)[C@@H]5CC[C@@]4(C)[C@]3(C)CC[C@@]2(/C=C/C(=O)N[C@H](C)c2cccc(Cl)c2)CC1=O [Example 31, 4-(((3aS,5aR,5bR,7aR,9S,11aR,11bR,13aS)-3a-((E)-3-(((R)-1-(3-Chlorophenyl)ethyl)amino)-3-oxoprop-1-en-1-yl)-1-isopropyl-5a,5b,8,8,11a-pentamethyl-2-oxo-3,3a,4,5,5a,5b,6,7,7a,8,9,10,11,11a,11b,12,13,13a-octadecahydro-2H-cyclopenta[a]chrysen-9-yl)oxy)-2,2-dimethyl-4-oxobutanoic acid] | – | – | 6.60 to 8.00 |
| CC(C)C1=C2[C@H]3CC[C@@H]4[C@@]5(C)CC[C@H](OC(=O)CC(C)(C)C(=O)O)C(C)(C)[C@@H]5CC[C@@]4(C)[C@]3(C)CC[C@@]2(/C=C/C(=O)NCCO)CC1=O [Example 32, 4-(((3aS,5aR,5bR,7aR,9S,11aR,11bR,13aS)-3a-((E)-3-((2-Hydroxyethyl)amino)-3-oxoprop-1-en-1-yl)-1-isopropyl-5a,5b,8,8,11a-pentamethyl-2-oxo-3,3a,4,5,5a,5b,6,7,7a,8,9,10,11,11a,11b,12,13,13a-octadecahydro-2H-cyclopenta[a]chrysen-9-yl)oxy)-2,2-dimethyl-4-oxobutanoic acid] | – | – | 6.60 to 8.00 |
| CC(C)C1=C2[C@H]3CC[C@@H]4[C@@]5(C)CC[C@H](OC(=O)CC(C)(C)C(=O)O)C(C)(C)[C@@H]5CC[C@@]4(C)[C@]3(C)CC[C@@]2(/C=C/C(=O)NCC2CCCCC2)CC1=O [Example 33, 4-(((3aS,5aR,5bR,7aR,9S,11aR,11bR,13aS)-3a-((E)-3-((Cyclohexylmethyl)amino)-3-oxoprop-1-en-1-yl)-1-isopropyl-5a,5b,8,8,11a-pentamethyl-2-oxo-3,3a,4,5,5a,5b,6,7,7a,8,9,10,11,11a,11b,12,13,13a-octadecahydro-2H-cyclopenta[a]chrysen-9-yl)oxy)-2,2-dimethyl-4-oxobutanoic acid] | – | – | > 8.00 |
| CC(C)C1=C2[C@H]3CC[C@@H]4[C@@]5(C)CC[C@H](OC(=O)CC(C)(C)C(=O)O)C(C)(C)[C@@H]5CC[C@@]4(C)[C@]3(C)CC[C@@]2(/C=C/C(=O)N[C@@H](C)c2cccc(Cl)c2)CC1 [Example 34, 4-(((3aR,5aR,5bR,7aR,9S,11aR,11bR,13aS)-3a-((E)-3-(((S)-1-(3-Chlorophenyl)ethyl)amino)-3-oxoprop-1-en-1-yl)-1-isopropyl-5a,5b,8,8,11a-pentamethyl-3,3a,4,5,5a,5b,6,7,7a,8,9,10,11,11a,11b,12,13,13a-octadecahydro-2H-cyclopenta[a]chrysen-9-yl)oxy)-2,2-dimethyl-4-oxobutanoic acid] | – | – | 6.60 to 8.00 |
